Assay results: US8642008B2, “Molecular probe for imaging of pancreatic islets and use of the same” (priority 2009, dated 2014)

Columns and labels:
[1] = test system: GLP-1R-positive tumor cells; settings: cited from earlier work
pancreatic islets = settings: cited from earlier work
pancreatic β-cells = experiment: Two-dimensional imaging analysis of pancreas sections of MIP-GFP mice (fluorescence and autoradiography); assay type: in vivo, mouse
Protocol: Two-dimensional imaging analysis was performed using transgenic mice that have a genetic background of C57BL/6 mice and express GFP (green fluorescent protein) under regulation of MIP (mouse insulin I gene promoter) (hereinafter these mice are referred to as “MIP-GFP mice”). […] Sections were cut out of the dissected pancreases, and each section was placed on a slide glass, covered with a cover glass. Fluorescence and radioactivity (autoradiography) of each section were determined using an image analyzer (trade name: Typhoon 9410, produced by GE Health Care Inc.) (exposure time: 14 hours).
Sections were cut out of the dissected pancreases, and fluorescence and radioactivity of each section were determined in the same manner as described above.
DPP (dipeptidyl peptidase) IV inhibitor (0.1 mL of 6 mg/mL solution) was administered by intravenous injection to unanesthetized MIP-GFP mice (male, weight: 20 g), and these mice were used as controls 1-2. […] Sections were cut out of the dissected pancreases, and fluorescence and radioactivity of each section were determined in the same manner as described above. […]
Sections were cut out of the dissected pancreases, and fluorescence and radioactivity of each section thus obtained were determined in the same manner as described above.

[2] = mouse, iv
Protocol: (§1) At points of 5 minutes, 15 minutes, 30 minutes, 60 minutes, and 120 minutes after the administration, organs were dissected out of the mice, respectively (n=5). The weight and the radioactivity of each organ were determined, and an accumulation amount (% dose/g) of the molecular probe was calculated from the radioactivity per unit weight. […] FIG. 1A is a graph showing how the accumulation of the molecular probe in each organ varied with time, and FIG. 1B is a graph of an enlarged part of FIG. 1A.
1, biodistribution of the same in a mouse was determined. […] The determination of biodistribution was carried out in the same manner as that in Example 1.
as §1, with “5A” for “1A”, “5B” for “1B”, “5A.” for “FIG. 1A.”

## Lys^40(Ahx-DTPA-^111In)Exendin-(9-39)
[1]
  uptake in the GLP-1R-positive tumor cells: about 7.5%
Pancreatic islets
  uptake in pancreatic islets: about 0.4%

## formula (35): exendin(9-39) sequence, α-amino group at N-terminus labeled with [125I] 3-iodobenzoyl group, C-terminus amidated
Pancreatic β-cells; 30 and 60 minutes after administration
  localization of the radioactivity signal versus GFP signal in pancreas sections: consistent with that of the GFP signal
Pancreatic β-cells; 30 minutes after probe
  radioactivity signal of pancreas sections after preliminary administration of cold probe exendin(9-39): substantially no radioactivity signal was detected
[2]; in vivo
  accumulation amount in the pancreas, times as much as that in the intestine: not less than 11 times
  accumulation amount in the pancreas, times as much as that in the stomach: not less than 3 times
[2]
  change with time of accumulation in the thyroid gland (deiodization metabolism in vivo): no great change
